The target in one data set is T1, serotonin transporter (Rattus norvegicus, UniProt P31652).
T1 construct: displace ^3H-paroxetine from male rat frontal cortical membranes; from tissue; host or cells: male rat frontal cortex membranes
As to the kind of experiment: 3H-paroxetine displacement, serotonin transporter affinity. The class given is binding.

Data set [1] deals with T2, cloned human 5-HT1A receptors (Homo sapiens, UniProt P08908).
T2 construct: expressed in transfected cells
T2 sequence (P08908 1-422): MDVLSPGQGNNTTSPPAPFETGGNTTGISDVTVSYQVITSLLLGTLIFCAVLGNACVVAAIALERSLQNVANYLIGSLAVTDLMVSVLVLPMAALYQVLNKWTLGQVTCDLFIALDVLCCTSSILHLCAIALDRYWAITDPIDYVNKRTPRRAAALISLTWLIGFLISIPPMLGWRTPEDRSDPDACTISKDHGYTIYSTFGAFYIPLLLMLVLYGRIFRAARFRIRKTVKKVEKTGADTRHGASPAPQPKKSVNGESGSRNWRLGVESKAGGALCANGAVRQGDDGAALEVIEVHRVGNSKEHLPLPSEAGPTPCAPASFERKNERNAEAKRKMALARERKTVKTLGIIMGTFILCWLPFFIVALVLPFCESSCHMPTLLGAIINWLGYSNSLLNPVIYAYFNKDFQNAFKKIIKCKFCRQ
As to the kind of experiment: 35S-GTPγS binding assay, 5-HT1A antagonist activity. The class given is biochemical. The conditions noted are these: reversal of the effects of standard agonist 8-OH DPAT; for IC50: read-out: 5-HT1A Function IC50. The method, then: Antagonist activity at 5-HT1A receptors was established by using a ^35S-GTPγS binding assay similar to that used by Lazareno and Birdsall (Br. J. Pharmacol. 109: 1120, 1993), in which the test compound's ability to affect the binding of ^35S-GTPγS to membranes containing cloned human 5-HT1A receptors was determined. Agonists produce an increase in binding whereas antagonists produce no increase but rather reverse the effects of the standard agonist 8-OH DPAT. The test compound's maximum inhibitory effect is represented as the Imax, while its potency is defined by the IC50.

In the next data set the target is T3, human 5-HT1A receptors (Homo sapiens, UniProt P08908).
T3 construct: expressed in transfected cells; host or cells: CHO cells
T3 sequence (P08908 1-422): T2 sequence (P08908 1-422)
As to the kind of experiment: [3H] 8-OHDPAT displacement, 5-HT1A receptor affinity. The class given is binding. From the text:
High affinity for the serotonin 5-HT1A receptor was established by testing the claimed compound's ability to displace [^3H] 8-OHDPAT (dipropylamino-tetralin) from the 5-HT1A serotonin receptor following a modification of the procedure of Hall et al., J. Neurochem. 44, 1685 (1985) which utilizes CHO cells stably transfected with human 5-HT1A receptors.

Read-outs that look alike come from different tables or passages of the source.

T1 sequence (P31652 whole entry): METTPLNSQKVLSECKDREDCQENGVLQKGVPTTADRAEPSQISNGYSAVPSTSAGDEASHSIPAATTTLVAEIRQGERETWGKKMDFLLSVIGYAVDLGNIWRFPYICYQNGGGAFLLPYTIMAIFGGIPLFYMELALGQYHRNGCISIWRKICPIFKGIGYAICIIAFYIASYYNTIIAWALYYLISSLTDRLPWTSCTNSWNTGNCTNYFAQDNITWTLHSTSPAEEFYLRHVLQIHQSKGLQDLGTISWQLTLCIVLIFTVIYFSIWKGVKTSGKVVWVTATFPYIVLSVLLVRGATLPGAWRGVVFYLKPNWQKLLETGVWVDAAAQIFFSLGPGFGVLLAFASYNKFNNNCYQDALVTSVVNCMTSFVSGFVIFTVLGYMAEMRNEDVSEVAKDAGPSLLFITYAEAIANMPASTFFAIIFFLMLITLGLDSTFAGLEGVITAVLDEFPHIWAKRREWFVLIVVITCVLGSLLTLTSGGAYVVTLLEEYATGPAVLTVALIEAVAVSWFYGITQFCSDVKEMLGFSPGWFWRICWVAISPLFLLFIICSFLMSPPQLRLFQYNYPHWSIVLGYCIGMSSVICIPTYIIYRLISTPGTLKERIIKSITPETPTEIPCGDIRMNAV

For the compound `Fc1ccc2[nH]cc(C3=CCN(CC4COc5ccc6nccnc6c5O4)CC3)c2c1` (stereo not drawn) [Example 1, 2-{[4-(5-Fluoro-1H-indol-3-yl)-3,6-dihydro-1(2H)-pyridinyl]methyl}-2,3-dihydro[1,4]dioxino[2,3-f]quinoxaline], the melting point is > 200 °C (dec.). This compound registered a Ki at serotonin transporter of 0.5 nM. Moreover, in data set [1], the 5-HT1A Function Imax (maximum inhibitory effect) is 100% and the IC50 worked out at 271 nM. At human 5-HT1A receptors, this compound had a Ki of 17.7 nM.
The matching figures for `C1=C(c2c[nH]c3ccccc23)CCN(CC2COc3ccc4nccnc4c3O2)C1` (stereo not drawn) [Example 2, 2-{[4-(1H-Indol-3-yl)-3,6-dihydro-1(2H)-pyridinyl]methyl}-2,3-dihydro[1,4]dioxino[2,3-f]quinoxaline]: > 220 °C (dec.), 2.86 nM, 100%, 203 nM and 30 nM.
Compound `Cc1nc2ccc3c(c2nc1C)O[C@@H](CN1CC=C(c2c[nH]c4ccccc24)CC1)CO3` [Example 3] displayed a melting point of 153 to 155 °C. In addition, affinity at serotonin transporter was put at a Ki of 1.19 nM. Further, in data set [1], the 5-HT1A Function Imax (maximum inhibitory effect) is 100% and the IC50 amounted to 332 nM. On human 5-HT1A receptors, this compound showed a Ki of 15.3 nM.
As to `Cc1nc2ccc3c(c2nc1C)OC(CN1CC=C(c2c[nH]c4ccc(F)cc24)CC1)CO3` (stereo not drawn) [Example 4, 2-{[4-(5-Fluoro-1H-indol-3-yl)-3,6-dihydro-1(2H)-pyridinyl]methyl}-8,9-dimethyl-2,3-dihydro[1,4]dioxino[2,3-f]quinoxaline], the melting point lay in the range of 138 to 141 °C. The compound also came in with a Ki at serotonin transporter of 1.57 nM. Further, in data set [1], the 5-HT1A Function Imax (maximum inhibitory effect) was 100% and the IC50 amounted to 389 nM. For the same compound, on human 5-HT1A receptors, the Ki was determined as 25.5 nM.
For the compound `CCc1nc2ccc3c(c2nc1CC)OC(CN1CC=C(c2c[nH]c4ccccc24)CC1)CO3` (stereo not drawn) [Example 5, 8,9-Diethyl-2-{[4-(1H-indol-3-yl)-3,6-dihydro-1(2H)-pyridinyl]methyl}-2,3-dihydro[1,4]dioxino[2,3-f]quinoxaline], the melting point is > 120 °C (dec.). The compound also yielded a Ki at serotonin transporter of 9.5 nM. Further, in data set [1], the 5-HT1A Function Imax (maximum inhibitory effect) worked out at 98% and the IC50 turned out to be 1860 nM. This compound showed a Ki on human 5-HT1A receptors of 99.2 nM.
Regarding `CCc1nc2ccc3c(c2nc1CC)OC(CN1CC=C(c2c[nH]c4ccc(F)cc24)CC1)CO3` (stereo not drawn) [Example 6, 8,9-Diethyl-2-{[4-(5-fluoro-1H-indol-3-yl)-3,6-dihydro-1(2H)-pyridinyl]methyl}-2,3-dihydro[1,4]dioxino[2,3-f]quinoxaline], the melting point is > 120 °C (dec.). Also, on serotonin transporter (displacement of 3H-paroxetine from male rat frontal cortical membranes, read-out: 5-HT Transporter Affinity KI), the Ki was 14 nM. Moreover, in data set [1], the 5-HT1A Function Imax (maximum inhibitory effect) is 100% and the IC50 stood at 2240 nM. The Ki at human 5-HT1A receptors (displacement of [3H] 8-OHDPAT, CHO cells stably transfected with human 5-HT1A receptors, read-out: 5-HT1A Receptor Affinity KI) was determined as 264 nM.

Broadly, the melting point is the temperature, or range, at which the solid turns liquid. As a reminder, the Ki is a measure of affinity in units of concentration, obtained from inhibition or displacement. The IC50 is the concentration needed to halve the response being measured.

The record behind these values is patent publication US7008944B2, “Antidepressant azaheterocyclylmethyl derivatives of 2,3-dihydro-1,4-Dioxino[2,3-f]quinoxaline” (Wyeth, priority 2001, dated 2006).
